This passage reports TGI results from PubChem BioAssay (NCI).

The structures appear in SMILES notation.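 Results reflect a 48-hour exposure of cells in 96-well plates to compound at five concentrations. TGI: total growth inhibition.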

For assay [1], the system named is P388 leukemia. The experiment in a line: NCI tumour cell line growth inhibition, 48 h.
Assay [2] deals with XF 498 CNS. The experiment in a line: NCI tumour cell line growth inhibition, 48 h.

As for `C=CC1(C)CC(=O)C2(O)C(C)(O1)C(OC(C)=O)C(O)C1C(C)(C)CCC(O)C12C` (configuration not stated), the TGI is more than 150 µM in assay [1] and 142 µM in assay [2].
